Reference: patent US12509449B2, “Anthelmintic compounds comprising a quinoline structure” (Intervet Inc., priority 2019, dated 2025)

Key:
[1] = target: T1, human Maxi K channel (BK channel), KCNMA1 (KCa1.1) and beta1 (KCNMB1) subunits (Homo sapiens, UniProt Q12791); experiment: Agonistic activity at the human Maxi K channel (BK channel), membrane potential (FLIPR) in transfected CHO K1 cells; assay type: cell-based; conditions: membrane potential dye, 70 mM KCl
T1 construct: expressed in transfected cells; host or cells: CHO K1
T1 sequence (Q12791 1-1178 isoform Q12791-5): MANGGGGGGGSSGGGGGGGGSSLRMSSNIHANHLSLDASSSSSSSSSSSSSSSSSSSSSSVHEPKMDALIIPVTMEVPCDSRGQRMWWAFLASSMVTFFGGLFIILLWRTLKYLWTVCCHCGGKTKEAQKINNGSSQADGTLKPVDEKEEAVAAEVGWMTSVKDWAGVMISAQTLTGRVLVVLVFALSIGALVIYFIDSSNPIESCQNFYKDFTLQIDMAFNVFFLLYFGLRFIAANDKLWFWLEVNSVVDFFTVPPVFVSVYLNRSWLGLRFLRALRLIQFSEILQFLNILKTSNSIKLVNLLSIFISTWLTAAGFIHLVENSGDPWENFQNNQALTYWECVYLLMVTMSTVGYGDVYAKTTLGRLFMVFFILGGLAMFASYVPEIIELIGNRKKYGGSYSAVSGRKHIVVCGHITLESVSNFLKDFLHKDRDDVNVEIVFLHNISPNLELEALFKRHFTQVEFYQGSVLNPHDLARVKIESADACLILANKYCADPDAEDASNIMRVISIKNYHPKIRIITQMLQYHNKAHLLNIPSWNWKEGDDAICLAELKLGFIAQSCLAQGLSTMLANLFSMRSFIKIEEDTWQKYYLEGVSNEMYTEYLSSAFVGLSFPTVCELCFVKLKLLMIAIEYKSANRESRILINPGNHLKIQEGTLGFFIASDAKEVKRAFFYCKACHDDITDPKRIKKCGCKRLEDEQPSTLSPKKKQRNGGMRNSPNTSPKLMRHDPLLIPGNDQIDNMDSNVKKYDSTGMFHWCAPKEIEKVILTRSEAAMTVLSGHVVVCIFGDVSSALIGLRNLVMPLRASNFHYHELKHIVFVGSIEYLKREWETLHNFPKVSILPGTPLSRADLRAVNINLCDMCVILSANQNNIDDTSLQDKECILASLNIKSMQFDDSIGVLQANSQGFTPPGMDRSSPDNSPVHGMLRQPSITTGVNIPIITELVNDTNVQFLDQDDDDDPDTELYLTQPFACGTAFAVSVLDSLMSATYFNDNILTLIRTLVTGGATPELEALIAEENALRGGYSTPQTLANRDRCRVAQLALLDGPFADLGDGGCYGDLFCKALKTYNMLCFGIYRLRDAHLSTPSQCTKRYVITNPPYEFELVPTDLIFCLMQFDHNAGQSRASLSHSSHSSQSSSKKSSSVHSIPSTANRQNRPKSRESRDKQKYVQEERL
T1 sequence (Q16558 whole entry partner): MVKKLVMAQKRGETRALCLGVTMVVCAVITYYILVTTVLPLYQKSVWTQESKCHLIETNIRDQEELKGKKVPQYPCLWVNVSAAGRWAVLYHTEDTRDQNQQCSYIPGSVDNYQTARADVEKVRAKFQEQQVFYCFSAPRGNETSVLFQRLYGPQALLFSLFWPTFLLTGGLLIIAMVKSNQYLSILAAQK
Excerpt: A CHO K1 cell line was stably transfected with the KCNMA1 (KCa1.1, U11058) and beta1 (KCNMB1) subunits of the human Maxi K channel (Ponte et al, Molecular Pharmacology 2012, 81(4), 567-577).
The complete measurement takes 150 s.

[2] = test system: Haemonchus contortus; experiment: In vitro assay Haemonchus contortus exsheathed L3 larvae motility; assay type: cell-based; conditions: 168 h, incubation 7 days, automated microscopy, read-out: ED50 against Haemonchus contortus (motility reduced by 50%)
Procedure: Solutions of compounds with declining concentrations in DMSO were prepared, diluted with nutrient medium and distributed to 96 well microtiterplates. […]3 larvae of Haemonchus contortus were incubated for 20 min at 37° C. in a water bath, separated by centrifugation and added to the wells with 300 Larvae/well. After incubation for 7 days motility was assessed by automated microscopy. Ivermectin was used as positive control, DMSO as negative control and ED50 values were calculated which represent the concentration for an individual compound that reduces motility by 50% with respect to the […].

[3] = target: Caenorhabditis elegans slo-1a (Caenorhabditis elegans, UniProt Q95V25); experiment: Agonistic activity at C. elegans Slo-1a, membrane potential (FLIPR) in transfected CHO K1 cells; conditions: EC50 agonistic activity at C. elegans Slo-1a, membrane potential dye, 70 mM KCl
Chain of Caenorhabditis elegans slo-1a (Q95V25 whole entry): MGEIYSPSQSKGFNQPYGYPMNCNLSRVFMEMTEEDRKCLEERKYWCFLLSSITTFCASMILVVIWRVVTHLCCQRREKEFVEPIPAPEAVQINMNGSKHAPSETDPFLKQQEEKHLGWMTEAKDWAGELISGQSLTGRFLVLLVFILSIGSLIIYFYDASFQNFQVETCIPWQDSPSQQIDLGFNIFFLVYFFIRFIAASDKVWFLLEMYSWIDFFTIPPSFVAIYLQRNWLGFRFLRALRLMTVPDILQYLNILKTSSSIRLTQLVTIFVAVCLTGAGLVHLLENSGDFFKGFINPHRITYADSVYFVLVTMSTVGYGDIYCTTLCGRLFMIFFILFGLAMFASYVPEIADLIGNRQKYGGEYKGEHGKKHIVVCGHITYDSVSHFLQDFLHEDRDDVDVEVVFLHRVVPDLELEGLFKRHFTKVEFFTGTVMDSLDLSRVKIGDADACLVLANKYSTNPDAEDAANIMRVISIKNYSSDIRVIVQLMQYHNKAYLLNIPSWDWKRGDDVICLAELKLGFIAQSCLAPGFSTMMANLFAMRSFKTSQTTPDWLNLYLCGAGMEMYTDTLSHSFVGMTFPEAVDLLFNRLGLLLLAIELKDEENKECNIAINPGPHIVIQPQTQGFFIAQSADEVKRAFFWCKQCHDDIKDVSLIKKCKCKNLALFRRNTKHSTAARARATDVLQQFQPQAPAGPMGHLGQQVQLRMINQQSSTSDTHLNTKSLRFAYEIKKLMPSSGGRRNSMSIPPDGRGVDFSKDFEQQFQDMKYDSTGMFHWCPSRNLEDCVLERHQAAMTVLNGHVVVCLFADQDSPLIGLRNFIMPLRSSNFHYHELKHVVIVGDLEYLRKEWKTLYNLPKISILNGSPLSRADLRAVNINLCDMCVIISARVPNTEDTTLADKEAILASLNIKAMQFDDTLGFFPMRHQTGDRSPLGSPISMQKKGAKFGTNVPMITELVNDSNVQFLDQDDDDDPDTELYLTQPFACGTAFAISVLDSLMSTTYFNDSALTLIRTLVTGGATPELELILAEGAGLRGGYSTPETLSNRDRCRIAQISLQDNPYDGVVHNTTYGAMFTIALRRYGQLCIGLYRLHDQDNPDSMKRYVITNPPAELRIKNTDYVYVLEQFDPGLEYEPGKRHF

[4] = test system: Dirofilaria immitis L1; experiment: In vitro assay Dirofilaria immitis L1 (microfilaria) motility; assay type: cell-based; conditions: 72 h, incubation 3 days, read-out: EC50 Dirofilaria immitis L1, reduction in motility
Procedure: (§1) Approximately 500 D. immitis microfilaria were added to a microtiter plate containing a nutrient medium and the test compound in DMSO at varying concentrations. After incubation for 3 days, activity was evaluated as reduction in motility as compared to DMSO as negative control. Compounds were tested in duplicates. Based on the concentration response curves EC50 values were calculated.

[5] = test system: Ascaridia galli L3; experiment: In vitro assay Ascaridia galli larval stage 3, minimum effective concentration; assay type: cell-based; conditions: 20 larvae per well, microscopic examination, read-out: MEC (minimum effective concentration) against Ascaridia galli L3
Excerpt: (§2) […] galli (intestinal roundworm of chicken), larval stage 3 (“L3”); and Oesophagostumum dentatum (nodular worm of swine), larval stages 3 and 4 (respectively “L3” and “L4”) where suspended in a nutrient medium and distributed to 96 well plates with 20 larvae per well. The wells were spiked DMSO solutions of the compounds with declining concentration.

[6] = test system: Acanthocheilonema viteae L1; experiment: In vitro assay Acanthocheilonema viteae L1 (microfilaria) motility; assay type: cell-based; conditions: 72 h, incubation 3 days, read-out: EC50 Acanthocheilonema viteae L1, reduction in motility
Procedure: as §1, with “A. viteae” for “D. immitis”

[7] = test system: Oesophagostumum dentatum L3; experiment: In vitro assay Oesophagostumum dentatum larval stage 3, minimum effective concentration; assay type: cell-based; conditions: 20 larvae per well, microscopic examination; read-out: MEC (minimum effective concentration) against Oesophagostumum dentatum L3
Excerpt: as §2

[8] = test system: Dirofilaria immitis L4; experiment: In vitro assay Dirofilaria immitis L4 motility; assay type: cell-based; conditions: 72 h, 10 larvae L4, incubation 3 days, read-out: EC50 Dirofilaria immitis L4, reduction in motility
Procedure: as §1, with “10 larvae L4 of” for “Approximately 500”, “immitis” for “immitis microfilaria”

[9] = test system: Oesophagostumum dentatum L4; experiment: In vitro assay Oesophagostumum dentatum larval stage 4, minimum effective concentration; assay type: cell-based; conditions: 20 larvae per well, microscopic examination; read-out: MEC (minimum effective concentration) against Oesophagostumum dentatum L4
Excerpt: as §2

[10] = test system: Haemonchus contortus; experiment: In vivo efficacy against Haemonchus contortus in jirds; design: species or system Haemonchus contortus in jirds (Meriones unguiculatus); conditions: necropsy three days after treatment
Procedure: Compounds according to this invention were tested in vivo using Haemonchus contortus in jirds (Meriones unguiculatus). The jirds were orally infected with approximately 1500 third-stage larvae of Haemonchus contortus. Ten days after infection, the jirds in the treatment groups were treated once either orally or subcutaneously with compounds at a dose of […]. For treatment, compounds were dissolved in a mixture of 10% Transcutol, 10% Cremophor EL and 80% physiological sodium chloride solution. Three days after treatment, the jirds were necropsied, and the larvae burden in the stomach was determined. The efficacy was defined as the reduction of the mean larvae count in the infected jirds of the treatment group in comparison to the infected jirds in an untreated control group (negative control).

Row | Compound | EC50 [1] [µM] | EC50 [3] [µM] | EC50 [2] [µM] | minimal effective concentration [5] [µM] | minimal effective concentration [7] [µM] | also measured
1 | O=C(Nc1cnc2c(-c3cc(Cl)cc(Cl)c3)cccc2c1O)C1CCCc2ccccc21 (stereo not drawn) [Compound 63] | > 30 |  |  |  |  | EC50 [4]: < 10 µM
2 | CN(C)c1c(NC(=O)Cc2ccccc2)cnc2c(-c3cc(Cl)cc(Cl)c3)cccc12 [Compound 3] | > 30 | < 10 |  | ≤ 50 | ≤ 50 | EC50 [8]: < 1 µM
3 | COc1c(NC(=O)C(C)c2ccccc2)cnc2c(-c3cccc(Cl)c3Cl)cccc12 (stereo not drawn) [Compound 11] | > 30 |  |  |  |  | EC50 [4]: < 10 µM
4 | CN(C)c1c(NC(=O)c2cccc3ccccc23)cnc2c(-c3cc(Cl)cc(Cl)c3)c(F)ccc12 [Compound 145] | > 30 | < 1 | < 50 |  |  | 
5 | COc1cccc(C(C)C(=O)Nc2cnc3c(-c4cccc(Cl)c4Cl)cccc3c2N(C)C)c1 (stereo not drawn) [Compound 29] | > 30 | < 10 |  | ≤ 50 |  | minimal effective concentration [9]: ≤ 50 µM; EC50 [4]: < 10 µM
6 | CN(C(=O)C1CCOc2ccccc21)c1cnc2c(-c3cccc(Cl)c3Cl)cccc2c1N1CCOCC1 (stereo not drawn) [Compound 158] | > 30 |  |  |  | ≤ 50 | minimal effective concentration [9]: ≤ 50 µM
7 | CN(C)c1c(NC(=O)C2CCOc3ccccc32)cnc2c(-c3cccc(Cl)c3F)cccc12 (stereo not drawn) [Compound 42] | > 30 | < 1 | < 50 |  |  | 
8 | O=C(Nc1cnc2c(-c3cc(Cl)cc(Cl)c3)c(F)ccc2c1N1CCOCC1)C1CCCc2ccccc21 (stereo not drawn) [Compound 116] | > 30 | < 1 | < 50 | ≤ 50 |  | 
9 | CCN(C(=O)C1CCOc2ccccc21)c1cnc2c(-c3cc(Cl)cc(Cl)c3)cccc2c1N(C)C (stereo not drawn) [Compound 162] | > 30 |  |  | ≤ 50 | ≤ 50 | EC50 [6]: < 10 µM
10 | CCOc1c(NC(=O)C2CCc3ccccc32)cnc2c(-c3cc(Cl)cc(Cl)c3)cccc12 (stereo not drawn) [Compound 79] | > 30 | < 10 | < 50 | ≤ 50 | ≤ 50 | 
11 | CC(C)Oc1c(NC(=O)c2cccc3ccccc23)cnc2c(-c3cc(Cl)cc(Cl)c3)c(F)ccc12 [Compound 147] | > 30 |  |  |  | ≤ 50 | EC50 [6]: < 10 µM
12 | O=C(Nc1cnc2c(-c3cccc(Cl)c3Cl)c(F)ccc2c1N1CCOCC1)c1cccc2ccccc12 [Compound 151] |  |  |  |  |  | reduction of the Haemonchus contortus count ([10]; administered orally once at 10 mg/kg bw): at least 80%; reduction of the Haemonchus contortus count ([10]; administered subcutaneously once at 10 mg/kg bw): at least 80%
13 | CC(C(=O)Nc1cnc2c(-c3cccc(Cl)c3Cl)cccc2c1N(C)C)c1cccc(Cl)c1 (stereo not drawn) [Compound 28] | > 30 |  |  | ≤ 50 |  | minimal effective concentration [9]: ≤ 50 µM; EC50 [4]: < 10 µM
14 | CC(C)Oc1c(NC(=O)C2CCOc3ccccc32)cnc2c(-c3cc(Cl)cc(Cl)c3)c(F)ccc12 (stereo not drawn) [Compound 127] | > 30 |  |  | ≤ 50 | ≤ 50 | EC50 [6]: < 10 µM
15 | CCN(C(=O)C1CCOc2ccccc21)c1cnc2c(-c3cc(Cl)cc(Cl)c3)cccc2c1N1CCOCC1 (stereo not drawn) [Compound 163] | > 30 |  |  |  |  | EC50 [6]: < 10 µM; minimal effective concentration [9]: ≤ 50 µM

Now from value to molecule, other results behind:

Row | EC50 [1] [µM] | EC50 [3] [µM] | Compound | EC50 [2] [µM] | minimal effective concentration [5] [µM] | minimal effective concentration [7] [µM] | also measured
16 | 10 to 30 | < 1 | O=C(Nc1cnc2c(-c3cc(Cl)cc(Cl)c3)cccc2c1N1CCOCC1)C1CCCc2ccccc21 (stereo not drawn) [Compound 8] | < 50 |  |  | 
17 | > 30 | < 1 | CN(C)c1c(NC(=O)c2cccc3ccccc23)cnc2c(-c3cccc(Cl)c3Cl)cccc12 [Compound 31] | < 50 |  |  | 
18 | > 30 | < 1 | CN(C)c1c(NC(=O)[C@H]2CCCc3ccccc32)cnc2c(-c3cc(Cl)cc(Cl)c3)cccc12 [Compound 156] | < 50 |  |  | 
19 | > 30 |  | CCN(C(=O)C1CCOc2ccccc21)c1cnc2c(-c3cccc(Cl)c3Cl)cccc2c1N1CCOCC1 (stereo not drawn) [Compound 159] |  | ≤ 50 |  | EC50 [6]: < 10 µM
20 | > 30 | < 10 | CC(C(=O)Nc1cnc2c(-c3cccc(Cl)c3Cl)cccc2c1N(C)C)c1ccccc1 (stereo not drawn) [Compound 24] | < 50 | ≤ 50 | ≤ 50 | 
21 | > 30 |  | CCN(C)c1c(NC(=O)C2CCCc3ccccc32)cnc2c(-c3cccc(Cl)c3Cl)cccc12 (stereo not drawn) [Compound 98] |  |  |  | EC50 [6]: < 10 µM
22 | > 30 |  | CCNc1c(NC(=O)C2CCOc3ccccc32)cnc2c(-c3cccc(Cl)c3Cl)cccc12 (stereo not drawn) [Compound 86] | < 50 | ≤ 50 |  | 
23 | 10 to 30 | < 1 | O=C(Nc1cnc2c(-c3cccc(Cl)c3Cl)cccc2c1N1CCC(O)C1)C1CCc2ccccc21 (stereo not drawn) [Compound 45] |  | ≤ 50 |  | minimal effective concentration [9]: ≤ 50 µM
